Measurements taken from PubChem BioAssay AID248 (DTP/NCI, 2004).
Several values for one entry are separate records, joined by “and”; a condition that tells them apart may be missing. Equal values may be shown once. Toxic doses and inconclusive results are not listed. Rule as the data show it: active = T/C of 150% or more; inactive = T/C below 125%.

System: L1210 leukemia ip in BDF1 mice, survival T/C
Assay: NCI In Vivo Anticancer Drug Screen. Data for tumor model L1210 Leukemia (intraperitoneal) in B6D2F1 (BDF1) mice
Details: endpoint: mean survival time, higher = longer survival
Summary of the method: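 Value reflects the ratio of survival in compound-treated mice to survival in vehicle-treated controls, with both groups carrying the same transplanted tumor.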

[1] = dose: 100.0 mg/kg/injection, schedule: Q01DX009 (ip), vehicle: saline sonified
[2] = dose: 100.0 mg/kg/injection, schedule: Q04DX003 (ip), vehicle: Klucel (hydroxypropylcellulose) (HPC)
[3] = dose: 200.0 mg/kg/injection, schedule: Q01DX009 (ip), vehicle: saline sonified
[4] = dose: 200.0 mg/kg/injection, schedule: Q04DX003 (ip), vehicle: Klucel (hydroxypropylcellulose) (HPC)
[5] = dose: 400.0 mg/kg/injection, schedule: Q01DX009 (ip), vehicle: saline sonified
[6] = dose: 400.0 mg/kg/injection, schedule: Q04DX003 (ip), vehicle: Klucel (hydroxypropylcellulose) (HPC)
[7] = dose: 100.0 mg/kg/injection, schedule: Q01DX001 (ip), vehicle: other
[8] = dose: 200.0 mg/kg/injection, schedule: Q01DX001 (ip), vehicle: other
[9] = dose: 400.0 mg/kg/injection, schedule: Q01DX001 (ip), vehicle: other
[10] = dose: 100.0 mg/kg/injection, schedule: Q01DX001 (ip), vehicle: Klucel (hydroxypropylcellulose) (HPC)
[11] = dose: 200.0 mg/kg/injection, schedule: Q01DX001 (ip), vehicle: Klucel (hydroxypropylcellulose) (HPC)
[12] = dose: 400.0 mg/kg/injection, schedule: Q01DX001 (ip), vehicle: Klucel (hydroxypropylcellulose) (HPC)
[13] = dose: 100.0 mg/kg/injection, schedule: Q01DX009 (ip), vehicle: saline with Tween-80
[14] = dose: 200.0 mg/kg/injection, schedule: Q01DX009 (ip), vehicle: saline with Tween-80
[15] = dose: 100.0 mg/kg/injection, schedule: Q01DX001 (ip), vehicle: saline
[16] = dose: 200.0 mg/kg/injection, schedule: Q01DX001 (ip), vehicle: saline
[17] = dose: 400.0 mg/kg/injection, schedule: Q01DX001 (ip), vehicle: saline
[18] = dose: 100.0 mg/kg/injection, schedule: Q04DX003 (ip), vehicle: saline with Tween-80
[19] = dose: 200.0 mg/kg/injection, schedule: Q04DX003 (ip), vehicle: saline with Tween-80
[20] = dose: 400.0 mg/kg/injection, schedule: Q04DX003 (ip), vehicle: saline with Tween-80
[21] = dose: 50.0 mg/kg/injection, schedule: Q01DX001 (ip), vehicle: saline
[22] = dose: 100.0 mg/kg/injection, schedule: Q01DX009 (ip), vehicle: Klucel (hydroxypropylcellulose) (HPC)
[23] = dose: 200.0 mg/kg/injection, schedule: Q01DX009 (ip), vehicle: Klucel (hydroxypropylcellulose) (HPC)
[24] = dose: 400.0 mg/kg/injection, schedule: Q01DX009 (ip), vehicle: Klucel (hydroxypropylcellulose) (HPC)
[25] = dose: 400.0 mg/kg/injection, schedule: Q01DX009 (ip), vehicle: saline with Tween-80

Measured: T/C

O=C(O)CCCC(=O)NC1CC2c3ccccc3C1c1ccccc12 (stereo unspecified)
inactive: [1] 101 % of control | [2] 94 % of control | [3] 100 % of control | [4] 96 % of control | [5] 100 % of control | [6] 91 % of control

CCN(CC)c1ccc(N=Cc2ccccc2S(=O)(=O)O)cc1
inactive: dose: 6.25 mg/kg/injection, schedule: Q01DX009 (ip), vehicle: saline 95 % of control | dose: 6.25 mg/kg/injection, schedule: Q04DX003 (ip), vehicle: saline sonified 97 % of control | dose: 12.5 mg/kg/injection, schedule: Q01DX009 (ip), vehicle: saline 96 % of control | dose: 12.5 mg/kg/injection, schedule: Q04DX003 (ip), vehicle: saline sonified 103 % of control | dose: 25.0 mg/kg/injection, schedule: Q01DX009 (ip), vehicle: saline 93 % of control | dose: 25.0 mg/kg/injection, schedule: Q04DX003 (ip), vehicle: saline sonified 110 % of control

CC(=O)Oc1ccc2c3c(c(=O)oc2c1)C(C)(C)c1c(c(=O)oc2cc(OC(C)=O)ccc12)C3(C)C
inactive: [1] 97 % of control | dose: 100.0 mg/kg/injection, schedule: Q04DX003 (ip), vehicle: saline sonified 102 % of control | [3] 98 % of control | dose: 200.0 mg/kg/injection, schedule: Q04DX003 (ip), vehicle: saline sonified 97 % of control | [5] 98 % of control | dose: 400.0 mg/kg/injection, schedule: Q04DX003 (ip), vehicle: saline sonified 105 % of control

OC1CCN2CCCc3cccc1c32 (stereo unspecified)
inactive: dose: 12.5 mg/kg/injection, schedule: Q01DX009 (ip), vehicle: DMSO 93 % of control | dose: 12.5 mg/kg/injection, schedule: Q04DX003 (ip), vehicle: DMSO 94 % of control | dose: 25.0 mg/kg/injection, schedule: Q01DX009 (ip), vehicle: DMSO 94 % of control | dose: 25.0 mg/kg/injection, schedule: Q04DX003 (ip), vehicle: DMSO 95 % of control | dose: 50.0 mg/kg/injection, schedule: Q01DX009 (ip), vehicle: DMSO 90 % of control | dose: 50.0 mg/kg/injection, schedule: Q04DX003 (ip), vehicle: DMSO 105 % of control

CC(C)CCC[C@@H](C)[C@H]1CC[C@H]2[C@@H]3C[C@@H](Br)[C@@]4(Br)C[C@@H](Cl)CC[C@]4(C)[C@H]3CC[C@]12C
inactive: dose: 50.0 mg/kg/injection, schedule: Q01DX001 (ip), vehicle: other 102 % of control | [7] 107 % of control | [8] 96 % of control | [9] 96 % of control

C[Si](C)(C)Br
inactive: dose: 100.0 mg/kg/injection, schedule: Q01DX009 (ip), vehicle: saline 96 % of control | dose: 200.0 mg/kg/injection, schedule: Q01DX009 (ip), vehicle: saline 87 % of control | dose: 400.0 mg/kg/injection, schedule: Q01DX009 (ip), vehicle: saline 87 % of control

OCn1c2ccccc2c2ccccc21
inactive: [7] 98 % of control | dose: 100.0 mg/kg/injection, schedule: Q04DX002 (ip), vehicle: Klucel (hydroxypropylcellulose) (HPC) 113 % of control | [8] 92 % of control | dose: 200.0 mg/kg/injection, schedule: Q04DX002 (ip), vehicle: Klucel (hydroxypropylcellulose) (HPC) 94 % of control | [9] 98 % of control | dose: 400.0 mg/kg/injection, schedule: Q04DX002 (ip), vehicle: Klucel (hydroxypropylcellulose) (HPC) 113 % of control

CCC(Cl)COP(=O)(CC(Cl)CC)OC(C)P(=O)(OCC(Cl)CC)OCC(Cl)CC (stereo unspecified)
inactive: [10] 101 % of control | [11] 121 % of control | [12] 97 % of control

CC(/C=C/c1ccc(O)cc1)=N\O
inactive: [13] 89 % of control | [14] 100 % of control

CCOC(=O)C(C)(C)O
inactive: [15] 91 % of control | [16] 100 % of control | [17] 102 % of control

C/C(=C/c1ccccc1)OC(=O)c1ccccc1
inactive: dose: 50.0 mg/kg/injection, schedule: Q01DX001 (ip), vehicle: carboxymethylcellulose (CMC) 87 % of control | dose: 100.0 mg/kg/injection, schedule: Q01DX001 (ip), vehicle: carboxymethylcellulose (CMC) 86 % of control

CC1(C)C2CC=C(N3CCCCC3)C1C2 (stereo unspecified)
inactive: [18] 96 % of control | [19] 96 % of control | [20] 98 % of control

CC1OC=CC(O)C1O (stereo unspecified)
inactive: [21] 94 % of control | [15] 100 % of control | [16] 105 % of control | [17] 97 % of control

O=C1C2CCN(CC2)C1C(c1ccccc1)c1ccccc1 (stereo unspecified)
inactive: dose: 100.0 mg/kg/injection, schedule: Q04DX003 (ip), vehicle: saline 96 % of control | dose: 200.0 mg/kg/injection, schedule: Q04DX003 (ip), vehicle: saline 102 % of control | dose: 400.0 mg/kg/injection, schedule: Q04DX003 (ip), vehicle: saline 100 % of control

O=C(O)C1C2CC=CCC21 (stereo unspecified)
inactive: dose: 25.0 mg/kg/injection, schedule: Q01DX001 (ip), vehicle: Klucel (hydroxypropylcellulose) (HPC) 102 % of control | dose: 50.0 mg/kg/injection, schedule: Q01DX001 (ip), vehicle: Klucel (hydroxypropylcellulose) (HPC) 101 % of control | [10] 93 % of control and 94 % of control | [2] 101 % of control | [11] 93 % of control | [4] 98 % of control | [12] 97 % of control | [6] 102 % of control

O=C(Nc1cccc(Cl)c1)C(Br)C(Br)c1ccccc1 (stereo unspecified)
inactive: [22] 102 % of control | [23] 103 % of control | [24] 100 % of control

O=C(CNC(=O)OCc1ccccc1)Nc1ccc(S(=O)(=O)c2ccc(NC(=O)CNC(=O)OCc3ccccc3)cc2)cc1
inactive: [21] 96 % of control | [15] 96 % of control | [16] 96 % of control | [17] 90 % of control

CSc1ccc(NC(=O)Nc2ccccc2C)cc1
inactive: [22] 100 % of control | [2] 93 % of control | [23] 94 % of control | [4] 95 % of control | [24] 96 % of control | [6] 88 % of control

Clc1sc2ccccc2c1Cl
inactive: dose: 50.0 mg/kg/injection, schedule: Q01DX009 (ip), vehicle: Klucel (hydroxypropylcellulose) (HPC) 103 % of control | [22] 95 % of control

Cc1ccc([N+](=O)[O-])cc1NC(=O)SCCOC(=O)COc1ccc(Cl)cc1Cl
inactive: [13] 94 % of control | [18] 93 % of control | [14] 94 % of control | [19] 98 % of control | [25] 105 % of control | [20] 89 % of control

COc1ccc(-c2cc(C(=O)O)c3ccc(C)cc3n2)cc1
inactive: [13] 103 % of control | [14] 95 % of control | [25] 96 % of control

O=C1c2ccccc2CCCC12OC2c1ccccc1 (stereo unspecified)
inactive: dose: 75.0 mg/kg/injection, schedule: Q04DX003 (ip), vehicle: Klucel (hydroxypropylcellulose) (HPC) 92 % of control | dose: 150.0 mg/kg/injection, schedule: Q04DX003 (ip), vehicle: Klucel (hydroxypropylcellulose) (HPC) 93 % of control | dose: 300.0 mg/kg/injection, schedule: Q04DX003 (ip), vehicle: Klucel (hydroxypropylcellulose) (HPC) 95 % of control

CCCCCC[N+]1(C)CC2C3C=CC(C3)C2C1 (stereo unspecified)
inactive: dose: 12.5 mg/kg/injection, schedule: Q04DX003 (ip), vehicle: saline 103 % of control | dose: 25.0 mg/kg/injection, schedule: Q04DX003 (ip), vehicle: saline 97 % of control | dose: 50.0 mg/kg/injection, schedule: Q04DX003 (ip), vehicle: saline 97 % of control | dose: 75.0 mg/kg/injection, schedule: Q04DX003 (ip), vehicle: saline 92 % of control
